From PubChem BioAssay (NCI)
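Step 1: Grow cells in 96-well plates. Step 2: Expose to compound for 48 hours at 5 concentrations. Step 3: Interpolate endpoints linearly; if unreached, use highest concentration. GI50 is the concentration that inhibits growth by half. TGI: total growth inhibition.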

Tests used:
Assay in all cases: growth of human tumour cells (NCI), 48 h
[1] = test system: 786-0 renal
[2] = test system: A498 renal
[3] = test system: A549 NSCLC
[4] = test system: ACHN renal
[5] = test system: BT-549 breast
[6] = test system: CAKI-1 renal
[7] = test system: CCRF-CEM leukemia
[8] = test system: COLO 205 colon
[9] = test system: DU-145 prostate
[10] = test system: EKVX NSCLC
[11] = test system: HCC-2998 colon
[12] = test system: HCT-116 colon
[13] = test system: HCT-15 colon
[14] = test system: HOP-62 NSCLC
[15] = test system: HOP-92 NSCLC
[16] = test system: HS 578T breast
[17] = test system: HT29 colon
[18] = test system: IGROV1 ovarian
[19] = test system: K-562 leukemia
[20] = test system: KM12 colon
[21] = test system: LOX IMVI melanoma
[22] = test system: M14 melanoma
[23] = test system: MALME-3M melanoma
[24] = test system: MCF7 breast
[25] = test system: MDA-MB-231 breast
[26] = test system: MDA-MB-435
[27] = test system: MOLT-4 leukemia
[28] = test system: NCI-H226 lung
[29] = test system: NCI-H23 lung
[30] = test system: NCI-H460 lung
[31] = test system: NCI-H522 lung
[32] = test system: NCI/ADR-RES ovarian
[33] = test system: OVCAR-3 ovarian
[34] = test system: OVCAR-4 ovarian
[35] = test system: OVCAR-5 ovarian
[36] = test system: OVCAR-8 ovarian
[37] = test system: PC-3 prostate
[38] = test system: RPMI-8226 leukemia
[39] = test system: RXF 393 renal
[40] = test system: SF-268 CNS
[41] = test system: SF-295 CNS
[42] = test system: SF-539 CNS
[43] = test system: SK-MEL-2 melanoma
[44] = test system: SK-MEL-28 melanoma
[45] = test system: SK-MEL-5 melanoma
[46] = test system: SK-OV-3 ovarian
[47] = test system: SN12C renal
[48] = test system: SNB-19 CNS
[49] = test system: SW-620 colon
[50] = test system: T-47D breast
[51] = test system: TK-10 renal
[52] = test system: U251 CNS
[53] = test system: UACC-257 melanoma
[54] = test system: UACC-62 melanoma
[55] = test system: UO-31 renal

C=C1C(=O)O[C@H]2[C@H]1CC/C(COC(=O)CCSCCC(=O)OC/C1=C/CC[C@@]3(C)O[C@H]3[C@H]3OC(=O)C(=C)[C@@H]3CC1)=C\CC[C@@]1(C)O[C@@H]21
GI50 [1]: 904 nM
TGI [1]: 2210 nM
GI50 [2]: 1700 nM
TGI [2]: 4780 nM
GI50 [3]: 2540 nM
TGI [3]: 7560 nM
GI50 [4]: 658 nM
TGI [4]: 1890 nM
GI50 [5]: 1290 nM
TGI [5]: 2660 nM
GI50 [6]: 1620 nM
TGI [6]: 3120 nM
GI50 [7]: 314 nM
TGI [7]: 1250 nM
GI50 [8]: 558 nM
TGI [8]: 1970 nM
GI50 [9]: 1360 nM
TGI [9]: 2710 nM
GI50 [10]: 1420 nM
TGI [10]: 3390 nM
GI50 [11]: 1890 nM
TGI [11]: 3520 nM
GI50 [12]: 206 nM
TGI [12]: 609 nM
GI50 [13]: 1110 nM
TGI [13]: 2460 nM
GI50 [14]: 2360 nM
TGI [14]: 7940 nM
GI50 [15]: 1260 nM
TGI [15]: 2700 nM
GI50 [16]: 3180 nM
TGI [16]: 24500 nM
GI50 [17]: 496 nM
TGI [17]: 1730 nM
GI50 [18]: 1300 nM
TGI [18]: 3250 nM
GI50 [19]: 371 nM
TGI [19]: 10200 nM
GI50 [20]: 1750 nM
TGI [20]: 3520 nM
GI50 [21]: 440 nM
TGI [21]: 1600 nM
GI50 [22]: 1520 nM
TGI [22]: 3350 nM
GI50 [23]: 1120 nM
TGI [23]: 2730 nM
GI50 [24]: 418 nM
TGI [24]: 1860 nM
GI50 [25]: 1090 nM
TGI [25]: 2550 nM
GI50 [26]: 1630 nM
TGI [26]: 4190 nM
GI50 [27]: 422 nM
TGI [27]: 2120 nM
GI50 [28]: 3000 nM
TGI [28]: 8960 nM
GI50 [29]: 1890 nM
TGI [29]: 4200 nM
GI50 [30]: 1860 nM
TGI [30]: 4210 nM
GI50 [31]: 686 nM
TGI [31]: 2290 nM
GI50 [32]: 3210 nM
TGI [32]: 11000 nM
GI50 [33]: 451 nM
TGI [33]: 1690 nM
GI50 [34]: 1660 nM
TGI [34]: 3710 nM
GI50 [35]: 2110 nM
TGI [35]: 4210 nM
GI50 [36]: 1570 nM
TGI [36]: 3960 nM
GI50 [37]: 1820 nM
TGI [37]: 4800 nM
GI50 [38]: 383 nM
TGI [38]: 1830 nM
GI50 [39]: 767 nM
TGI [39]: 2150 nM
GI50 [40]: 1630 nM
TGI [40]: 4540 nM
GI50 [41]: 1770 nM
TGI [41]: 3940 nM
GI50 [42]: 1200 nM
TGI [42]: 2590 nM
GI50 [43]: 2180 nM
TGI [43]: 4880 nM
GI50 [44]: 1390 nM
TGI [44]: 2860 nM
GI50 [45]: 1640 nM
TGI [45]: 3140 nM
GI50 [46]: 4100 nM
TGI [46]: 13800 nM
GI50 [47]: 1350 nM
TGI [47]: 3620 nM
GI50 [48]: 2430 nM
TGI [48]: 7290 nM
GI50 [49]: 556 nM
TGI [49]: 2020 nM
GI50 [50]: 1300 nM
TGI [50]: 3210 nM
GI50 [51]: 1500 nM
TGI [51]: 2980 nM
GI50 [52]: 1390 nM
TGI [52]: 3450 nM
GI50 [53]: 1640 nM
TGI [53]: 3600 nM
GI50 [54]: 1700 nM
TGI [54]: 3610 nM
GI50 [55]: 1070 nM
TGI [55]: 2270 nM
